Experimental data reported in the supplement of paper PMC10331698.
± gives the standard deviation of the averaged measurements.

Columns and labels:
Test in all cases: LOEC (log10 uM (lowest observed effect concentration))
[1] = compound: O=C(O)C=C(C(F)(F)F)C(F)(F)F [3,3-Bis(trifluoromethyl)-2-propenoic acid]
Method: (§1)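 BioMAP Diversity Plus panel in human primary cell co-cultures, 4 concentrations in duplicate blinded samples. Responses are log10 fold change versus DMSO control, processed with tcpl v2.1.0. A hit is called when responses at any concentration exceed the cutoff (the larger of 3*bmad or log10(1.2)); the lowest observed effect concentration (modl_ga, log10 uM) is reported for hits.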

[2] = compound: O=C(O)C(F)(F)C(F)(F)C(F)(F)C(F)(F)C(F)(F)C(F)(F)C(F)(F)C(F)(F)F [Perfluorononanoic acid]
Method: as §1

[3] = compound: O=C(O)C(F)(F)OC(F)(F)C(F)(F)OC(F)(F)C(F)(F)OC(F)(F)C(F)(F)C(F)(F)C(F)(F)F [Perfluoro-3,6,9-trioxatridecanoic acid]
Method: as §1

[4] = compound: NS(=O)(=O)C(F)(F)C(F)(F)C(F)(F)C(F)(F)C(F)(F)C(F)(F)C(F)(F)C(F)(F)F [Perfluorooctanesulfonamide]
Method: as §1

[5] = compound: O=C(O)C(F)(OC(F)(F)C(F)(F)C(F)(F)F)C(F)(F)F [Ammonium perfluoro-2-methyl-3-oxahexanoate]
Method: as §1

[6] = compound: O=C(O)C(F)(F)C(F)(F)C(F)(F)C(F)(F)C(F)(F)C(F)(F)C(F)(F)C(F)(F)C(F)(F)C(F)(F)F [Perfluoroundecanoic acid]
Method: as §1

[7] = compound: OCC(F)(F)OC(F)(F)C(F)(F)OC(F)(F)C(F)(F)OC(F)(F)CO [1H,1H,11H,11H-Perfluorotetraethylene glycol]
Method: as §1

[8] = compound: CCNS(=O)(=O)C(F)(F)C(F)(F)C(F)(F)C(F)(F)C(F)(F)C(F)(F)C(F)(F)C(F)(F)F [N-Ethylperfluorooctanesulfonamide]
Method: as §1

[9] = compound: O=S(=O)(O)CCC(F)(F)C(F)(F)C(F)(F)C(F)(F)C(F)(F)C(F)(F)C(F)(F)C(F)(F)F [8:2 Fluorotelomer sulfonic acid]
Method: as §1

[10] = compound: C[C@@H]1C[C@H]2[C@@H]3CCC4=CC(=O)C=C[C@]4(C)[C@@]3(F)[C@@H](O)C[C@]2(C)[C@@]1(O)C(=O)COP(=O)(O)O [Dexamethasone sodium phosphate]
Method: as §1

[11] = compound: O=S(=O)(O)C(F)(F)C(F)(F)C(F)(F)C(F)(F)C(F)(F)C(F)(F)C(F)(F)F [Perfluoroheptanesulfonic acid]
Method: as §1

[12] = compound: OCCC(F)(F)C(F)(F)C(F)(F)C(F)(F)F [4:2 Fluorotelomer alcohol]
Method: as §1

[13] = compound: O=C(O)CCC(F)(C(F)(F)F)C(F)(F)F [4,4-bis(Trifluoromethyl)-4-fluoropropanoic acid]
Method: as §1

[14] = compound: O=S(=O)(O)C(F)(F)C(F)(F)OC(F)(F)C(F)(F)F [Perfluoro(2-ethoxyethane)sulfonic acid]
Method: as §1

Test System	LOEC (log10 uM) [1]	LOEC (log10 uM) [2]	LOEC (log10 uM) [3]	LOEC (log10 uM) [4]	LOEC (log10 uM) [8]	other results
3C HLADR down	1.78	1.78	1.78	1.54 ± 0.34	–	–
3C IL8 up	–	–	–	–	–	LOEC (log10 uM) [5]: 1.78
3C Proliferation down	–	1.78	1.3	1.3	1.78	LOEC (log10 uM) [6]: 0.845; LOEC (log10 uM) [7]: 1.54 ± 0.34
3C VCAM1 down	1.54 ± 0.34	1.78	1.78	1.78	1.78	–
4H Eotaxin3 down	1.78	1.78	1.78	1.78	1.54 ± 0.34	LOEC (log10 uM) [5]: 1.04 ± 1
4H MCP1 down	–	–	1.78	1.78	1.78	LOEC (log10 uM) [7]: 1.78
4H Pselectin down	1.78	–	1.78	1.78	1.54 ± 0.34	–
4H VCAM1 down	0.573 ± 0.39	–	1.54 ± 0.34	1.78	1.78	–
BE3C HLADR down	–	1.31 ± 0.66	0.845	0.845	1.3	LOEC (log10 uM) [6]: 0.573 ± 0.39; LOEC (log10 uM) [7]: 1.78; LOEC (log10 uM) [9]: 1.3
BE3C IL8 down	–	1.3	0.845	0.845	1.3	LOEC (log10 uM) [6]: 0.845; LOEC (log10 uM) [10]: 0.239 ± 0.34; LOEC (log10 uM) [9]: 1.78
BE3C IP10 down	–	1.3	0.845	0.845	1.07 ± 0.32	LOEC (log10 uM) [6]: 0.301; LOEC (log10 uM) [7]: 1.78; LOEC (log10 uM) [9]: 1.3
BE3C MMP1 down	–	1.78	0.845	–	–	LOEC (log10 uM) [6]: 0.845; LOEC (log10 uM) [10]: 0.477 ± 0.68
BE3C MMP1 up	–	–	–	–	1.3	LOEC (log10 uM) [11]: 1.48; LOEC (log10 uM) [9]: 1.3; LOEC (log10 uM) [5]: 1.78
BE3C tPA down	0.801 ± 0.71	1.3	0.845	1.78	1.3	LOEC (log10 uM) [6]: 0.845; LOEC (log10 uM) [10]: 0.239 ± 0.34
BF4T Eotaxin3 down	–	1.3	0.845	1.3	0.845	LOEC (log10 uM) [6]: 0.301; LOEC (log10 uM) [9]: 1.54 ± 0.34
BF4T IL8 up	–	–	–	–	–	LOEC (log10 uM) [11]: 1.48
BF4T MCP1 down	–	1.3	1.07 ± 0.32	1.78	1.3	LOEC (log10 uM) [6]: 0.845; LOEC (log10 uM) [7]: 1.3
BF4T tPA down	1.07 ± 0.32	1.54 ± 0.34	0.845	1.78	1.3	LOEC (log10 uM) [6]: 0.845; LOEC (log10 uM) [7]: 1.54 ± 0.34
BT PBMCCytotoxicity down	–	–	–	–	–	LOEC (log10 uM) [10]: 0

Test System	LOEC (log10 uM) [1]	LOEC (log10 uM) [2]	LOEC (log10 uM) [3]	LOEC (log10 uM) [4]	LOEC (log10 uM) [8]	other results
BT sIgG down	1.78	–	1.78	1.54 ± 0.34	1.54 ± 0.34	LOEC (log10 uM) [7]: 1.78
BT xIL2 down	0.845	–	–	–	–	LOEC (log10 uM) [10]: 0
BT xIL6 down	–	–	1.78	1.78	–	LOEC (log10 uM) [7]: 1.78; LOEC (log10 uM) [10]: 0.716 ± 0.34
BT xIL17A down	1.78	–	1.78	1.78	–	–
BT xIL17F down	0.573 ± 0.39	–	1.78	1.78	1.54 ± 0.34	LOEC (log10 uM) [7]: 1.78
BT xTNFa down	1.54 ± 0.34	–	–	1.54 ± 0.34	–	LOEC (log10 uM) [7]: 1.78
BT xTNFa up	–	–	–	–	–	LOEC (log10 uM) [12]: 1.31 ± 0.66
CASM3C IL6 down	1.07 ± 0.32	–	–	–	–	LOEC (log10 uM) [10]: 0.239 ± 0.34
CASM3C MCP1 down	–	–	–	–	–	LOEC (log10 uM) [10]: 0.477 ± 0.68
CASM3C Proliferation down	1.78	–	1.78	1.78	–	–
CASM3C SAA up	–	–	–	–	–	LOEC (log10 uM) [13]: 1.54 ± 0.34; LOEC (log10 uM) [14]: 1.54 ± 0.34
CASM3C Thrombomodulin up	–	–	–	1.78	1.78	LOEC (log10 uM) [5]: 0.845
CASM3C VCAM1 down	0.573 ± 0.39	–	1.78	1.78	1.54 ± 0.34	LOEC (log10 uM) [5]: 1.31 ± 0.66
IMphg CD40 down	–	1.78	1.78	1.3	1.78	LOEC (log10 uM) [9]: 1.78
IMphg CD69 down	–	1.78	1.31 ± 0.66	–	1.78	LOEC (log10 uM) [9]: 1.78
IMphg ESelectin down	1.78	–	1.3	0.573 ± 0.39	1.54 ± 0.34	LOEC (log10 uM) [10]: 0
IMphg ESelectin up	–	–	–	–	–	LOEC (log10 uM) [9]: 1.78
IMphg IL8 down	–	–	–	–	–	LOEC (log10 uM) [10]: 0.239 ± 0.34
IMphg IL8 up	1.3	1.07 ± 0.32	–	–	1.78	LOEC (log10 uM) [5]: 0.573 ± 0.39
